This is an account of results in patent US4954637A, “Certain maleimide-N-alkylenecarboxylate-ortho-nitrobenzenesulfonic acid esters and derivatives useful for coupling biological materials” (Cetus Corporation, priority 1987, dated 1990).

The test system of one data set is cells. The note with it: vs biotin-p-nitrophenyl ester; fluoresceinated avidin; cited from earlier work.
The test system of a further data set is polylysine. The note with it: over a 5 minute period; pH 7.4, room temperature.
The next data set concerns bovine serum albumin. The following applies: pH 8.5; vs same ester of N-hydroxysuccinimide; cited from earlier work.
Data set [1] concerns sheep red blood cells (SRBC). Put plainly: Labelling of sheep red blood cells, Coulter EPICS V Cytofluorometer. Type of data set: cell-based. The following applies: excitation at 360 nm. The protocol:
Dansyl-sac-HNSA ester was prepared as described in Example 1A using molar equivalents of HNSA, dicyclohexylcarbodiimide and dansyl-ε-aminocaproic acid (from Sigma Chemicals). For use in coupling to sheep red blood cells (SRBC) the dansyl-sac-HNSA ester (50 mg) was prepared in 7 ml of 0.28M cacodylate buffer, pH 6.9.
Sheep red blood cells were washed 4 times (400×g. 8 minutes) in G-PBS buffer (5% α-D-glucose w/v in PBSCa-Mg). To 1 ml of packed red blood cells was added the 7 ml of dansyl-sac-HNSA ester dropwise with gentle mixing for 10 minutes at room temperature. The reaction was done in foil-wrapped glassware to protect against photodecomposition. Following the reaction the cells were washed in cold G-PBS buffer containing 1% heat inactivated (56° C., 30 minutes) FCS (fetal calf serum) until the supernatants were colorless (a minimum of 4 washes).
The dansyl-sac-HNSA labelled SRBC were monitored using a Coulter EPICS V Cytofluorometer immediately after labeling and at 24 hours. […] This translates to an increase in intensity 720 times over unlabeled cells.

The nature of the next data set: Solubility in water. It counts as physicochemical.
Data set [2] can be described thus: Stability in water and on storage. It counts as physicochemical. The following applies: no nucleophiles added.
The format of data set [3] is physicochemical. The following applies: 50 μl of 4.8N NaOH added to aliquot in 1 ml pH 7.0 buffer. On the procedure:
About 0.5 mg of the purified mal-sac HNSA ester from Example IA was dissolved in 1 ml of distilled water.
The difference between the post-base and initial free HNSA concentration represents the concentration of ester. From the actual concentration of ester the amount of ester to be added to the protein solution to achieve the desired degree of substitution can be calculated.

The test system of the next data set is biotinylated polylysine. Kind of data set: Coupling of mal-sac-HNSA to biotinylated polylysine, then to HRP-SH. The note with it: over a 30 minute period; pH 7.4, room temperature.
The test system of data set [4] is Horseradish peroxidase (HRP). The note with it: over a 30 minute period; pH 7.0, room temperature.
The subject of the next data set is streptavidin. Also on record: species or system Streptomyces avidinii. The following applies: over the period measured; pH 7.4, room temperature. The protocol:
A total of 0.26 mg (4.3×10^-3 μmoles) of streptavidin purified from Streptomyces avidinii by the method of Hoffman et al., PNAS. 77, 4666-4668 (1980) was dissolved in 1.0 ml of phosphate buffered saline at pH 7.4 to yield a total amine concentration of 6.93×10^-5 M (16NH2 /streptavidin). […] Good separation was achieved between the protein and the excess HNSA and unreacted HNSA ester. […] In this case 79% of the amino groups on streptavidin (12.9 out of 16.0) reacted.

The subject of data set [5] is bovine serum albumin (BSA). The following applies: for Concentration of Ester: diluted aliquot. The protocol: A total of 22 mg ([…]) of BSA (of molecular weight 66,296) was dissolved in 2.0 ml of 0.01M phoshate buffer at pH 7.5 to yield a total amino concentration of 1.0×10^-2 moles per liter (assuming 59 lysines/BSA molecule). A calculated amount mg. […] The reaction was carried out at room temperature. […]
It was found at 15 minutes of reaction time that 2.6×10^-3 moles/1 of the ester had reacted and thus 25.9% of the 59 ε-amino groups of BSA were presumably substituted. Thus, the product contained 16 mal-sac groups per molecule.

SMILES strings stand for the structures. Where two headings read alike, the source gives them in different places.

Protocol for biotinylated polylysine: Biotinylated Polylysine (0.6 ml; 73,000 D average mol. wt.) was adjusted to pH 7.4 with 0.015 ml of 2.5N NaOH. Approximately 5 mg of mal-sac-HNSA was added to the biotinylated polylysine and stirred at room temperature. Ten μl aliquots were removed from the mixture at timed intervals and diluted into 1.0 ml of 0.01M phosphate buffer at pH 7.0. The spectrum of each diluted aliquot was measured and the absorbance at 406 nm recorded. A total of 50 μl of 4.8N NaOH solution was then added to each aliquot, mixed, and the spectrum retaken.
After 30 minutes of incubation time, the reaction was stopped using a Sephadex G-25 column, and the high molecular weight (biotin)4-polylysine-(sac-mal)18 was well separated from excess HNSA and unreacted mal-sac-HNSA.

Regarding `O=C1N[C@H]2[C@H](CS[C@H]2CCCCC(=O)Oc2ccc(S(=O)(=O)O)cc2[N+](=O)[O-])N1` [Biotin-HNSA Ester], the increase in fluorescence result with cells is “much larger increase in fluorescence”. In the data set on polylysine, the reaction rate result is on record as “essentially linear”.

For `O=C(CCCCCNc1ccc([N+](=O)[O-])cc1[N+](=O)[O-])Oc1ccc(S(=O)(=O)O)cc1[N+](=O)[O-]` [N-2,4-dinitrophenyl-6-aminocaproic acid ester of HNSA], the conjugation efficiency entry in the data set with bovine serum albumin is “more efficient than the same ester of N-hydroxysuccinimide”.

For `CN(C)c1cccc2c(S(=O)(=O)NCCCCCC(=O)Oc3ccc(S(=O)(=O)O)cc3[N+](=O)[O-])cccc12` [dansyl-sac-HNSA], the “increase in fluorescence intensity over unlabeled cells” value in data set [1] was found to be 720 times.

As to `O=C(CCCCCN1C(=O)C=CC1=O)Oc1ccc(S(=O)(=O)O)cc1[N+](=O)[O-]` [mal-sac-HNSA, N-maleimido-6-aminocaproylHNSA], in “Solubility in water”, the solubility in water result is “dissolve fully in water”. The “Percent Ester Remaining” value with avidin (10 minutes, room temperature) was determined as 81%. The reaction rate entry in the data set with avidin (30 minutes, FIG. 3) was “linear”; in the data set on biotinylated polylysine, “essentially linear”; in [4], “essentially linear”; with streptavidin, “essentially linear”. Further, the stability in water entry in [2] was “stable in water for several hours”. Further, the hydrolysis by hydroxide result in [3] was “rapidly hydrolyzed”. The “Concentration of Ester” value in data set [5] (0 minutes) is reported as 1.56 × 10^-4 moles/1; in [5] (5 minutes), 1.16 × 10^-4 moles/1; in data set [5] (9 minutes), 1.03 × 10^-4 moles/1; in data set [5] (14 minutes), 1.11 × 10^-4 moles/1. In [5] (15 minutes of reaction time), the ester reacted is recorded as 2.6×10^-3 moles/1.
